Measurements published in paper PMC9963398, “Discovery of New Quinolone-Based Diarylamides as Potent B-RAF^V600E/C-RAF Kinase Inhibitors Endowed with Promising In Vitro Anticancer Activity” (International Journal of Molecular Sciences, 2023).

Legend:
[1] = tested on: MDA-MB-468; test: cells; conditions: Homo sapiens
Protocol: (§1) The anticancer screening of target compounds over a full panel of 60 human cancer cell lines was carried out using Sulforhodamine B (SRB) assay at the National Cancer Institute (NCI), Bethesda, Maryland, USA, employing the standard protocol.

[2] = tested on: PC-3; test: cells; conditions: Homo sapiens
Protocol: as §1

[3] = tested on: MDA-MB-231/ATCC; test: cells; conditions: Homo sapiens
Protocol: as §1

[4] = tested on: SW-620; test: NCI-60 five-dose SRB assay; assay type: cell-based; conditions: Homo sapiens; SW-620, Colon cancer, five-dose test
Protocol: as §1

[5] = tested on: OVCAR-4; test: NCI-60 five-dose SRB assay; assay type: cell-based; conditions: Homo sapiens; OVCAR-4, Ovarian cancer, five-dose test
Protocol: as §1

[6] = tested on: SF-539; test: NCI-60 five-dose SRB assay; assay type: cell-based; conditions: Homo sapiens; SF-539, CNS cancer, five-dose test
Protocol: as §1

[7] = tested on: SK-MEL-2; test: NCI-60 five-dose SRB assay; assay type: cell-based; conditions: Homo sapiens; SK-MEL-2, Melanoma, five-dose test
Protocol: as §1

[8] = tested on: HCT-116; test: NCI-60 five-dose SRB assay; assay type: cell-based; conditions: Homo sapiens; HCT-116, Colon cancer, five-dose test
Protocol: as §1

[9] = tested on: MALME-3M; test: NCI-60 five-dose SRB assay; assay type: cell-based; conditions: Homo sapiens, Melanoma, five-dose test
Protocol: as §1

[10] = tested on: U251; test: NCI-60 five-dose SRB assay; assay type: cell-based; conditions: Homo sapiens, U-251; U251, CNS cancer, five-dose test
Protocol: as §1

[11] = tested on: LOX IMVI; test: NCI-60 five-dose SRB assay; assay type: cell-based; conditions: Homo sapiens, Melanoma, five-dose test
Protocol: as §1

[12] = tested on: HCC-2998; test: NCI-60 five-dose SRB assay; assay type: cell-based; conditions: Homo sapiens; HCC-2998, Colon cancer, five-dose test
Protocol: as §1

[13] = tested on: SK-MEL-28; test: NCI-60 five-dose SRB assay; assay type: cell-based; conditions: Homo sapiens; SK-MEL-28, Melanoma, five-dose test
Protocol: as §1

[14] = tested on: KM12; test: NCI-60 five-dose SRB assay; assay type: cell-based; conditions: Homo sapiens; KM12, Colon cancer, five-dose test
Protocol: as §1

[15] = tested on: HL-60(TB); test: NCI-60 five-dose SRB assay; assay type: cell-based; conditions: Homo sapiens, Leukemia, five-dose test
Protocol: as §1

[16] = tested on: UACC-62; test: NCI-60 five-dose SRB assay; assay type: cell-based; conditions: Homo sapiens; UACC-62, Melanoma, five-dose test
Protocol: as §1

[17] = tested on: UACC-257; test: NCI-60 five-dose SRB assay; assay type: cell-based; conditions: Homo sapiens; UACC-257, Melanoma, five-dose test
Protocol: as §1

[18] = tested on: CAKI-1; test: NCI-60 five-dose SRB assay; assay type: cell-based; conditions: Homo sapiens; CAKI-1, Renal cancer, five-dose test
Protocol: as §1

[19] = tested on: MCF7; test: NCI-60 five-dose SRB assay; assay type: cell-based; conditions: Homo sapiens; MCF7, Breast cancer, five-dose test
Protocol: as §1

[20] = tested on: SNB-75; test: NCI-60 five-dose SRB assay; assay type: cell-based; conditions: Homo sapiens; SNB-75, CNS cancer, five-dose test
Protocol: as §1

[21] = tested on: M14; test: NCI-60 five-dose SRB assay; assay type: cell-based; conditions: Homo sapiens; M14, Melanoma, five-dose test
Protocol: as §1

[22] = tested on: NCI-H522; test: NCI-60 five-dose SRB assay; assay type: cell-based; conditions: Homo sapiens; NCI-H522, NSCL cancer, five-dose test
Protocol: as §1

[23] = tested on: SF-295; test: NCI-60 five-dose SRB assay; assay type: cell-based; conditions: Homo sapiens; SF-295, CNS cancer, five-dose test
Protocol: as §1

[24] = tested on: RXF 393; test: NCI-60 five-dose SRB assay; assay type: cell-based; conditions: Homo sapiens; RXF 393, Renal cancer, five-dose test
Protocol: as §1

[25] = tested on: ACHN; test: NCI-60 five-dose SRB assay; assay type: cell-based; conditions: Homo sapiens, Renal cancer, five-dose test
Protocol: as §1

[26] = tested on: IGROV1; test: NCI-60 five-dose SRB assay; assay type: cell-based; conditions: Homo sapiens, IGROV-1; IGROV1, Ovarian cancer, five-dose test
Protocol: as §1

[27] = tested on: NCI-H226; test: NCI-60 five-dose SRB assay; assay type: cell-based; conditions: Homo sapiens; NCI-H226, NSCL cancer, five-dose test
Protocol: as §1

[28] = tested on: OVCAR-8; test: NCI-60 five-dose SRB assay; assay type: cell-based; conditions: Homo sapiens; OVCAR-8, Ovarian cancer, five-dose test
Protocol: as §1

[29] = tested on: A549/ATCC; test: NCI-60 five-dose SRB assay; assay type: cell-based; conditions: Homo sapiens, NSCL cancer, five-dose test
Protocol: as §1

[30] = tested on: K-562; test: NCI-60 five-dose SRB assay; assay type: cell-based; conditions: Homo sapiens, K562; K-562, Leukemia, five-dose test
Protocol: as §1

[31] = tested on: COLO 205; test: NCI-60 five-dose SRB assay; assay type: cell-based; conditions: Homo sapiens; COLO 205, Colon cancer, five-dose test
Protocol: as §1

[32] = tested on: MOLT-4; test: NCI-60 five-dose SRB assay; assay type: cell-based; conditions: Homo sapiens; MOLT-4, Leukemia, five-dose test
Protocol: as §1

[33] = tested on: SK-MEL-5; test: NCI-60 five-dose SRB assay; assay type: cell-based; conditions: Homo sapiens; SK-MEL-5, Melanoma, five-dose test
Protocol: as §1

[34] = tested on: 786-0; test: NCI-60 five-dose SRB assay; assay type: cell-based; conditions: Homo sapiens; 786-0, Renal cancer, five-dose test
Protocol: as §1

[35] = tested on: HOP-92; test: NCI-60 five-dose SRB assay; assay type: cell-based; conditions: Homo sapiens; HOP-92, NSCL cancer, five-dose test
Protocol: as §1

[36] = tested on: NCI-H322M; test: NCI-60 five-dose SRB assay; assay type: cell-based; conditions: Homo sapiens, NSCL cancer, five-dose test
Protocol: as §1

[37] = tested on: MDA-MB-435; test: NCI-60 five-dose SRB assay; assay type: cell-based; conditions: Homo sapiens; MDA-MB-435, Melanoma, five-dose test
Protocol: as §1

[38] = tested on: CCRF-CEM; test: NCI-60 five-dose SRB assay; assay type: cell-based; conditions: Homo sapiens, Leukemia, five-dose test
Protocol: as §1

[39] = tested on: OVCAR-3; test: NCI-60 five-dose SRB assay; assay type: cell-based; conditions: Homo sapiens; OVCAR-3, Ovarian cancer, five-dose test
Protocol: as §1

[40] = tested on: HOP-62; test: NCI-60 five-dose SRB assay; assay type: cell-based; conditions: Homo sapiens; HOP-62, NSCL cancer, five-dose test
Protocol: as §1

[41] = tested on: T-47D; test: NCI-60 five-dose SRB assay; assay type: cell-based; conditions: Homo sapiens, T47D, Breast cancer, five-dose test
Protocol: as §1

[42] = target: C-RAF (Homo sapiens, UniProt P04049); test: HotSpot kinase assay (RBC), C-RAF; conditions: for IC50: IC50 C-RAF, 10 µM ATP, 10-dose singlicate IC50 mode
Sequence of C-RAF (P04049 whole entry): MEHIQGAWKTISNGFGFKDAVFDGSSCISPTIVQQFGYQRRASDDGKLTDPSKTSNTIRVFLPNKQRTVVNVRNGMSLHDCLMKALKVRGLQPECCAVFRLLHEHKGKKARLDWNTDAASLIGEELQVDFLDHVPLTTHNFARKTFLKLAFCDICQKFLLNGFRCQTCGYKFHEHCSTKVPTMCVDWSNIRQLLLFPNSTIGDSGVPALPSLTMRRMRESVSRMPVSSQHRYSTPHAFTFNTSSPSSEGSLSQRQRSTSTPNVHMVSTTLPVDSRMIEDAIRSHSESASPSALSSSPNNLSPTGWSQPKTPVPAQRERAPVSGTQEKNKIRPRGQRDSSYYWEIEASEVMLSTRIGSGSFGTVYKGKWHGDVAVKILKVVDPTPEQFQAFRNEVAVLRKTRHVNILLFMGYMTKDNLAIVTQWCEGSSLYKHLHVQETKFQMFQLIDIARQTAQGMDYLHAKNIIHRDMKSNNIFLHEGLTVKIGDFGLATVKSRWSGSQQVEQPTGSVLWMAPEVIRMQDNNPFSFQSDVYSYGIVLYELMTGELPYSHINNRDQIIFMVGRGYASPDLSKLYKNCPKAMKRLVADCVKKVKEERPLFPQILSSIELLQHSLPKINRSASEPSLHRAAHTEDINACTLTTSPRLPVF
Text: Reaction Biology Corporation (RBC) Kinase HotSpotSM service was utilized for cell-free biochemical kinase evaluation of the target compounds according to the reported assay protocol [46].

COc1cccc2nc(Nc3ccc(F)c(NC(=O)c4ccc(CN5CCN(C)CC5)c(C(F)(F)F)c4)c3)ccc12 [Compound 15a, N-(2-fluoro-5-((5-methoxyquinolin-2-yl)amino)phenyl)-4-((4-methylpiperazin-1-yl)methyl)-3-(trifluoromethyl)benzamide]
GI50 [1]: 4.79 µM | GI50 [2]: 12 µM | GI50 [3]: 12.1 µM | GI50 [4]: 16.9 µM | GI50 [5]: 13.9 µM | GI50 [6]: 12.4 µM | GI50 [7]: 16.1 µM | GI50 [8]: 8.75 µM | GI50 [9]: 11.7 µM | GI50 [10]: 13.4 µM | GI50 [11]: 13.8 µM | GI50 [12]: 18.8 µM | GI50 [13]: 15.3 µM | GI50 [14]: 15.4 µM | GI50 [15]: 6.52 µM | GI50 [16]: 16.2 µM | GI50 [17]: 16.3 µM | GI50 [18]: 11.5 µM | GI50 [19]: 12.3 µM | GI50 [20]: 9.09 µM | GI50 [21]: 13.1 µM | GI50 [22]: 16 µM | GI50 [23]: 17.1 µM | GI50 [24]: 3.71 µM | GI50 [25]: 16.5 µM | GI50 [26]: 14.5 µM | GI50 [27]: 11.1 µM | GI50 [28]: 15.8 µM | GI50 [29]: 12.2 µM | GI50 [30]: 3.59 µM | GI50 [31]: 17.2 µM | GI50 [32]: 4.1 µM | GI50 [33]: 15.5 µM | GI50 [34]: 12.5 µM | GI50 [35]: 6.64 µM | GI50 [36]: 15.2 µM | GI50 [37]: 15.1 µM | GI50 [38]: 9.71 µM | GI50 [39]: 14.4 µM | GI50 [40]: 14.5 µM | GI50 [41]: 14.8 µM | IC50 [42]: 0.161 ± 0.00157 µM

COc1ccc2nc(Nc3cccc(NC(=O)c4ccc(CN5CCN(C)CC5)c(C(F)(F)F)c4)c3)ccc2c1 [Compound 16a, N-(3-((6-methoxyquinolin-2-yl)amino)phenyl)-4-((4-methylpiperazin-1-yl)methyl)-3-(trifluoromethyl)benzamide]
GI50 [1]: 1.56 µM | GI50 [2]: 2.9 µM | GI50 [3]: 1.84 µM | GI50 [4]: 5.89 µM | GI50 [5]: 4.32 µM | GI50 [6]: 2.08 µM | GI50 [7]: 5.98 µM | GI50 [8]: 2.41 µM | GI50 [9]: 4.62 µM | GI50 [10]: 3.77 µM | GI50 [11]: 1.55 µM | GI50 [12]: 5.25 µM | GI50 [13]: 5.33 µM | GI50 [14]: 4.05 µM | GI50 [15]: 5.46 µM | GI50 [16]: 6.45 µM | GI50 [17]: 4.35 µM | GI50 [18]: 4.9 µM | GI50 [19]: 1.37 µM | GI50 [20]: 0.684 µM | GI50 [21]: 3.63 µM | GI50 [22]: 4.88 µM | GI50 [23]: 3.41 µM | GI50 [24]: 1.75 µM | GI50 [25]: 4.88 µM | GI50 [26]: 6.22 µM | GI50 [27]: 4.6 µM | GI50 [28]: 5.82 µM | GI50 [29]: 4.36 µM | GI50 [30]: 0.882 µM | GI50 [31]: 5.78 µM | GI50 [32]: 1.63 µM | GI50 [33]: 5.1 µM | GI50 [34]: 5 µM | GI50 [35]: 1.36 µM | GI50 [36]: 6.06 µM | GI50 [37]: 5.73 µM | GI50 [38]: 2.15 µM | GI50 [39]: 5.89 µM | GI50 [40]: 6.36 µM | GI50 [41]: 4.12 µM | IC50 [42]: 0.103 ± 0.00265 µM | better kinase inhibition activity compared to 14a, C-RAF ([42]; ratio of IC50 versus 14a): 1.5 fold

CN1CCN(Cc2ccc(C(=O)Nc3cccc(Nc4ccc5c(O)cccc5n4)c3)cc2C(F)(F)F)CC1 [Compound 17a, N-(3-((5-hydroxyquinolin-2-yl)amino)phenyl)-4-((4-methylpiperazin-1-yl)methyl)-3-(trifluoromethyl)benzamide]
GI50 [1]: 1.62 µM | GI50 [2]: 2.53 µM | GI50 [3]: 1.62 µM | GI50 [4]: 2.24 µM | GI50 [5]: 7.39 µM | GI50 [6]: 1.67 µM | GI50 [7]: 1.92 µM | GI50 [8]: 2.7 µM | GI50 [9]: 1.67 µM | GI50 [10]: 2.38 µM | GI50 [11]: 1.65 µM | GI50 [12]: 1.89 µM | GI50 [13]: 1.77 µM | GI50 [14]: 2.3 µM | GI50 [15]: 2.47 µM | GI50 [16]: 1.73 µM | GI50 [17]: 1.92 µM | GI50 [18]: 2.13 µM | GI50 [19]: 1.74 µM | GI50 [20]: 1.85 µM | GI50 [21]: 2.21 µM | GI50 [22]: 1.93 µM | GI50 [23]: 1.65 µM | GI50 [24]: 1.66 µM | GI50 [25]: 2.07 µM | GI50 [26]: 4.7 µM | GI50 [27]: 19.2 µM | GI50 [28]: 3.56 µM | GI50 [29]: 4.5 µM | GI50 [30]: 2.42 µM | GI50 [31]: 1.99 µM | GI50 [32]: 1.86 µM | GI50 [33]: 1.68 µM | GI50 [34]: 2.11 µM | GI50 [35]: 1.32 µM | GI50 [36]: 3.23 µM | GI50 [37]: 1.78 µM | GI50 [38]: 2.91 µM | GI50 [39]: 3.1 µM | GI50 [40]: 3 µM | GI50 [41]: 10.7 µM | IC50 [42]: 0.095 ± 0.0173 µM
